Molecular target: T1, HIV protease (Human immunodeficiency virus type 1 group M subtype B, UniProt P04585)
T1 construct: the protease expressed in Eschericia coli; made in house; host or cells: Escherichia coli
Test: Assay for Inhibition of Microbial Expressed Viral Protease
Type: biochemical
Settings: protease expressed in Eschericia coli; peptide substrate Val-Ser-Gln-Asn-(betanapthyl)Ala-Pro-lie-Val 0.5 mg/ml; 50 mM Na acetate, pH 5.5, 30° C, 1 hr; HPLC readout
Experimental: Assay for Inhibition of Microbial Expressed Viral Protease
Inhibition studies of the reaction of the protease expressed in Eschericia coli with a peptide substrate [Val-Ser-Gln-Asn-(betanapthyl)Ala-Pro-lie-Val, 0.5 mg/ml at the time the reaction is initiated] were in 50 mM Na acetate, pH 5.5, at 30° C for 1 hr. Various concentrations of inhibitor in 1.0 ul DMSO were added to 25 ul of the peptide solution in water. The reaction is initiated by the addition of 15 ul of 0.33 nM protease (0.11 ng) in a solution of 0.133 M Na acetate pH 5.5 and 0.267% bovine serum albumin. The reaction was quenched with 160 ul of 5% phosphoric acid. Products of the reaction were separated by HPLC (VYDAC wide pore 5 cm C-18 reverse phase, acetonitrile gradient, 0.1% phosphoric acid). The extent of inhibition of the reaction was determined from the peak heights of the products.

| IC50 [nM] | SMILES |
| --- | --- |
| 0.5 to 10 | CS(=O)(=O)N[C@@H](Cc1ccccc1)[C@@H](O)C[C@@H](Cc1ccccc1)C(=O)N[C@H]1c2ccccc2C[C@H]1O [Compound H, N-(2(R)-hydroxy-1 (S)-indanyl)-N'-(methanesulfonyl)-5(S)-amino-4(S)-hydroxy-6-phenyl-2(R)-(phenylmethyl)-hexanamide] |
| 0.5 to 10 | CC[C@H](C)[C@H](NC(=O)[C@H](Cc1ccccc1)C[C@H](O)[C@H](Cc1ccccc1)NC(=O)CCC(=O)O)C(=O)NCc1ccccc1 [Compound F, N-benzyl-N'-(succinoyl)-5(S)-amino-4(S)-hydroxy-6-phenyl-2(R)-(phenylmethyl)hexanoyl isoleucyl amide] |
| 0.5 to 10 | O=C1CC[C@@H](C(=O)N[C@@H](Cc2ccccc2)[C@@H](O)C[C@@H](Cc2ccccc2)C(=O)N[C@H]2c3ccccc3C[C@H]2O)O1 [Compound J, N-(2(R)-hydroxy-1 (S)-indanyl)-N'-(5-oxo-2(S)-tetrahydrofuranylcarbonyl)-5(S)-amino-4(S)-hydroxy-6-phenyl-2(R)-(phenylmethyl)hexanamide] |
| 0.5 to 10 | O=C(O)CCC(=O)N[C@@H](Cc1ccccc1)[C@@H](O)C[C@@H](Cc1ccccc1)C(=O)N[C@H]1c2ccccc2C[C@H]1O [Compound G, N-(2(R)-hydroxy-1 (S)-indanyl)-N'-(succinoyl)-5(S)-amino-4(S)-hydroxy-6-phenyl-2(R)-(phenylmethyl)-hexanamide] |

From patent EP0356223A2, “HIV protease inhibitors useful for the treatment of aids” (MERCK & CO. INC., priority 1988, dated 1990)
